Results published in ChEMBL document CHEMBL4251578, “Design, synthesis and biological evaluation of novel 2-aminobenzamides containing dithiocarbamate moiety as histone deacetylase inhibitors and potent antitumor agents” (Eur J Med Chem, 2018).

What was measured:
[1] = test system: HeLa; experiment: Antiproliferative activity against human HeLa cells at 2 uM after 72 hrs by CCK-8 assay relative to control; format: functional
[2] = test system: MGC-803; experiment: Antiproliferative activity against human MGC803 cells at 2 uM after 72 hrs by CCK-8 assay relative to control; format: functional; conditions: MGC-803, 72 h
[3] = test system: A-375; experiment: Antiproliferative activity against human A375 cells at 8 uM after 72 hrs by CCK-8 assay relative to control; format: functional; conditions: A-375, 72 h
[4] = test system: HeLa; experiment: Antiproliferative activity against human HeLa cells at 8 uM after 72 hrs by CCK-8 assay relative to control; format: functional
[5] = test system: A-375; experiment: Antiproliferative activity against human A375 cells at 2 uM after 72 hrs by CCK-8 assay relative to control; format: functional; conditions: A-375, 72 h
[6] = test system: MGC-803; experiment: Antiproliferative activity against human MGC803 cells at 8 uM after 72 hrs by CCK-8 assay relative to control; format: functional; conditions: MGC-803, 72 h
[7] = test system: MGC-803; experiment: Antiproliferative activity against human MGC803 cells after 72 hrs by CCK-8 assay; format: functional, cell-based; conditions: MGC-803, 72 h
[8] = test system: HCT-116; experiment: Antiproliferative activity against human HCT116 cells after 72 hrs by CCK-8 assay; format: functional, cell-based; conditions: HCT-116, 72 h
[9] = test system: SMMC-7721; experiment: Antiproliferative activity against human SMMC7721 cells after 72 hrs by CCK-8 assay; format: functional, cell-based; conditions: SMMC-7721, 72 h
[10] = test system: A-375; experiment: Antiproliferative activity against human A375 cells after 72 hrs by CCK-8 assay; format: functional, cell-based; conditions: A-375, 72 h
[11] = test system: NCI-H1299; experiment: Antiproliferative activity against human NCI-H1299 cells after 72 hrs by CCK-8 assay; format: functional, cell-based; conditions: NCI-H1299, 72 h
[12] = test system: HeLa; experiment: Antiproliferative activity against human HeLa cells after 72 hrs by CCK-8 assay; format: functional, cell-based
[13] = test system: SMMC-7721; experiment: Cell cycle arrest in human SMMC7721 cells assessed as accumulation of cells at G0/G1 phase at 0.125 umol/L after 72 hrs by propidium iodide staining-based flow cytometric analysis (reference value: 80.65%); format: functional

Q: How did the inhibition at 2 µM [1] turn out when `Nc1ccccc1NC(=O)c1ccc(CSC(=S)N2CCN(c3ncccn3)CC2)cc1` was run?
A: 52.2%

Q: And the inhibition at 2 µM [2]?
A: 28.4%

Q: What about the inhibition at 8 µM [3] of the same compound?
A: 67.9%

Q: What about the inhibition at 8 µM [4] of the same compound?
A: 73.9%

Q: And the inhibition at 2 µM [5]?
A: 24%

Q: What about the inhibition at 8 µM [6] of the same compound?
A: 64.8%

Q: For `Nc1ccccc1NC(=O)c1ccc(CSC(=S)N2CCN(Cc3cccnc3)CC2)cc1`, which inhibition at 2 µM [1] is on record?
A: 69.7%

Q: And the inhibition at 2 µM [2]?
A: 37.7%

Q: And the inhibition at 8 µM [3]?
A: 89.2%

Q: And the inhibition at 8 µM [4]?
A: 78%

Q: And the inhibition at 2 µM [5]?
A: 31.5%

Q: What about the inhibition at 8 µM [6] of the same compound?
A: 64.6%

Q: With `CN1CCN(C(=S)SCc2ccc(C(=O)Nc3ccccc3N)cc2)CC1` as the compound, how does the inhibition at 2 µM [1] read?
A: 52.6%

Q: And the inhibition at 2 µM [2]?
A: 29.6%

Q: And the inhibition at 8 µM [3]?
A: 91.6%

Q: And the inhibition at 8 µM [4]?
A: 75.7%

Q: What about the inhibition at 2 µM [5] of the same compound?
A: 36.6%

Q: What about the inhibition at 8 µM [6] of the same compound?
A: 84.4%

Q: What does the source list for `Nc1ccccc1NC(=O)c1ccc(CSC(=S)N(Cc2ccccc2)Cc2ccccc2)cc1`?
A: inhibition at 2 µM [1]: 1%; inhibition at 2 µM [2]: 11%; inhibition at 8 µM [3]: 32.5%; inhibition at 8 µM [4]: 18.9%; inhibition at 2 µM [5]: 10.9%; inhibition at 8 µM [6]: 30.7%

Q: How did the inhibition at 2 µM [1] turn out when `N#Cc1ccc(N2CCN(C(=S)SCc3ccc(C(=O)Nc4ccccc4N)cc3)CC2)cc1` was run?
A: 71.6%

Q: And the inhibition at 2 µM [2]?
A: 34.5%

Q: What about the inhibition at 8 µM [3] of the same compound?
A: 62.9%

Q: What about the inhibition at 8 µM [4] of the same compound?
A: 70.6%

Q: What about the inhibition at 2 µM [5] of the same compound?
A: 41.4%

Q: What about the inhibition at 8 µM [6] of the same compound?
A: 37.6%

Q: What does the source list for `Nc1ccccc1NC(=O)c1ccc(CSC(=S)N2CCN(CCc3ccccc3)CC2)cc1`?
A: inhibition at 2 µM [1]: 21.9%; inhibition at 2 µM [2]: 24.8%; inhibition at 8 µM [3]: 76.6%; inhibition at 8 µM [4]: 37%; inhibition at 2 µM [5]: 26.1%; inhibition at 8 µM [6]: 53.8%

Q: `CN(Cc1ccncc1)C(=S)SCc1ccc(C(=O)Nc2ccccc2N)cc1` was tested. Which inhibition at 2 µM [1] did it give?
A: 29.5%

Q: What about the inhibition at 2 µM [2] of the same compound?
A: 38.1%

Q: What about the inhibition at 8 µM [3] of the same compound?
A: 86.1%

Q: And the inhibition at 8 µM [4]?
A: 72.7%

Q: What about the inhibition at 2 µM [5] of the same compound?
A: 31.4%

Q: What about the inhibition at 8 µM [6] of the same compound?
A: 83.2%

Q: What does the source list for `Nc1ccccc1NC(=O)c1ccc(CSC(=S)N2CCN(c3ccc(F)cc3)CC2)cc1`?
A: IC50 [7]: 17.2 µM; IC50 [8]: 2.73 µM; inhibition at 2 µM [1]: 60.8%; IC50 [9]: > 32 µM; inhibition at 2 µM [2]: 18.8%; inhibition at 8 µM [3]: 76.3%; IC50 [10]: 9.4 µM; inhibition at 8 µM [4]: 64.5%; inhibition at 2 µM [5]: 20.9%; IC50 [11]: 0.98 µM; inhibition at 8 µM [6]: 48.7%

Q: `Nc1ccccc1NC(=O)c1ccc(CSC(=S)N2CCc3ccccc32)cc1` was tested. Which IC50 [7] did it give?
A: 2.3 µM

Q: What about the IC50 [8] of the same compound?
A: 2.7 µM

Q: And the inhibition at 2 µM [1]?
A: 38%

Q: What about the IC50 [9] of the same compound?
A: 3.04 µM

Q: And the inhibition at 2 µM [2]?
A: 44%

Q: What about the inhibition at 8 µM [3] of the same compound?
A: 85.4%

Q: And the IC50 [10]?
A: 4.05 µM

Q: And the inhibition at 8 µM [4]?
A: 67%

Q: And the inhibition at 2 µM [5]?
A: 25.7%

Q: And the IC50 [11]?
A: 2.9 µM

Q: And the IC50 [12]?
A: 3.45 µM

Q: What about the inhibition at 8 µM [6] of the same compound?
A: 87%

Q: What does the source list for `Nc1ccccc1NC(=O)c1ccc(CSC(=S)N2CCN(C(c3ccccc3)c3ccccc3)CC2)cc1`?
A: inhibition at 2 µM [1]: 8%; inhibition at 2 µM [2]: 9.8%; inhibition at 8 µM [3]: 8.4%; inhibition at 8 µM [4]: 13.8%; inhibition at 2 µM [5]: 8.7%; inhibition at 8 µM [6]: 9.9%

Q: For `Nc1ccccc1NC(=O)c1ccc(CSC(=S)N2CCN(Cc3ccccc3)CC2)cc1`, which inhibition at 2 µM [1] is on record?
A: 20.6%

Q: And the inhibition at 2 µM [2]?
A: 18.1%

Q: What about the inhibition at 8 µM [3] of the same compound?
A: 29.3%

Q: What about the inhibition at 8 µM [4] of the same compound?
A: 31.3%

Q: And the inhibition at 2 µM [5]?
A: 10.6%

Q: And the inhibition at 8 µM [6]?
A: 19.7%

Q: For `Nc1ccccc1NC(=O)c1ccc(CSC(=S)N2CCc3ccc([N+](=O)[O-])cc32)cc1`, which inhibition at 2 µM [1] is on record?
A: 45.7%

Q: And the inhibition at 2 µM [2]?
A: 30.6%

Q: And the inhibition at 8 µM [3]?
A: 42%

Q: What about the inhibition at 8 µM [4] of the same compound?
A: 62.1%

Q: And the inhibition at 2 µM [5]?
A: 22.1%

Q: And the inhibition at 8 µM [6]?
A: 39.6%

Q: Which results are given for `CN(C(=S)SCc1ccc(C(=O)Nc2ccccc2N)cc1)c1cccnc1`?
A: inhibition at 2 µM [1]: 16%; inhibition at 2 µM [2]: 46.1%; inhibition at 8 µM [3]: 87.7%; inhibition at 8 µM [4]: 70.5%; inhibition at 2 µM [5]: 26.5%; inhibition at 8 µM [6]: 82.5%

Q: What does the source list for `CC1CCCCN1C(=S)SCc1ccc(C(=O)Nc2ccccc2N)cc1` (stereo not given)?
A: IC50 [7]: 1.61 µM; IC50 [8]: 1.32 µM; inhibition at 2 µM [1]: 45.5%; Activity [13]: Dose-dependent effect; IC50 [9]: 2.95 µM; inhibition at 2 µM [2]: 64.4%; inhibition at 8 µM [3]: 85.2%; IC50 [10]: 2.61 µM; inhibition at 8 µM [4]: 76.3%; inhibition at 2 µM [5]: 42.5%; IC50 [11]: 1.3 µM; IC50 [12]: 2.3 µM; inhibition at 8 µM [6]: 86.9%

Q: Which results are given for `Nc1ccccc1NC(=O)c1ccc(CSC(=S)N2CCN(c3ccccc3)CC2)cc1`?
A: IC50 [7]: 2.14 µM; IC50 [8]: 2.33 µM; inhibition at 2 µM [1]: 62.2%; IC50 [9]: 2.86 µM; inhibition at 2 µM [2]: 42.3%; inhibition at 8 µM [3]: 88.6%; IC50 [10]: 3.67 µM; inhibition at 8 µM [4]: 73.1%; inhibition at 2 µM [5]: 27.5%; IC50 [11]: 0.61 µM; IC50 [12]: 0.84 µM; inhibition at 8 µM [6]: 87.4%

Q: For `Nc1ccccc1NC(=O)c1ccc(CSC(=S)N2CCN(Cc3ccncc3)CC2)cc1`, which inhibition at 2 µM [1] is on record?
A: 59.5%

Q: And the inhibition at 2 µM [2]?
A: 18.4%

Q: What about the inhibition at 8 µM [3] of the same compound?
A: 89.5%

Q: And the inhibition at 8 µM [4]?
A: 72.9%

Q: And the inhibition at 2 µM [5]?
A: 33.1%

Q: What about the inhibition at 8 µM [6] of the same compound?
A: 79.3%
